Data set [1] in a line: Retention in blood: carotenoid concentration in serum of mice (Test Example 1). It counts as in vivo, ICR strain mice. The following applies: 50 mg/kg body weight orally once daily for 10 days, blood 4 hours after last administration. From the text: Adonixanthin was used as an asymmetric carotenoid, and astaxanthin was used as a symmetric carotenoid. As experimental animals, ICR strain mice were used. Fourteen (14) mice were used, and 4 mice each were assigned to the adonixanthin-administration group and the astaxanthin-administration group, and 6 mice were assigned to the control administration group. In grouping, each group was constituted so that the mean body weight in each group was as uniform as possible based on the body weight on the day before initiation of administration. For each experimental group, blood was collected before initiation of administration of dosing substances. […] Each of the concentration of adonixanthin in serum of blood collected from the adonixanthin-administration group (concentration relative to 1 mL of serum) and the concentration of astaxanthin in serum of blood collected from the astaxanthin-administration group (concentration relative to 1 mL of serum) was measured. […] In HPLC, the concentration of adonixanthin was measured as a concentration of each of the cis isomer and the trans isomer. In HPLC, the concentration of astaxanthin was measured as a concentration of each of the cis isomer and the trans isomer. […] From serum collected from the control administration group, neither adonixanthin nor astaxanthin were detected.

Data set [2] can be described thus: Transfer into each organ: carotenoid concentration in organs of mice (Test Example 1). As to conditions: 50 mg/kg orally once daily for 10 days; for concentration at 10 days: ICR, mouse, po, after last administration, mean. Format: in vivo, ICR strain mice. From the text: Adonixanthin was used as an asymmetric carotenoid, and astaxanthin was used as a symmetric carotenoid. As experimental animals, ICR strain mice were used. Fourteen (14) mice were used, and 4 mice each were assigned to the adonixanthin-administration group and the astaxanthin-administration group, and 6 mice were assigned to the control administration group. In grouping, each group was constituted so that the mean body weight in each group was as uniform as possible based on the body weight on the day before initiation of administration.
To each experimental group, each of adonixanthin, astaxanthin, and olive oil (product number 150-00276, manufactured by Wako Pure Chemical Industries, Ltd.) was orally administered. In the adonixanthin-administration group and the astaxanthin-administration group, adonixanthin and astaxanthin at a volume of 50 mg/kg body weight were orally administered once daily for 10 days (the day of initiation of administration of the dosing substances was defined as day 1) using a flexible stomach tube. In the control administration group, olive oil at a volume of 0.05 mL/kg body weight was orally administered once daily for 10 days using a flexible stomach tube.
During the administration period, the mice were fed ad libitum a pellet (CE-2, manufactured by CLEA Japan, Inc.) and tap water, and maintained on a 12-h light/dark cycle, at 23±3° C., with a relative humidity of 50±20%.
After blood collection after the last administration, the whole body was perfused with a heparinized lactated Ringer's solution under isoflurane anesthesia, followed by collection of the retina, the heart, the lung, the spleen, the liver, and the kidney. The collected organs were immediately frozen with liquid nitrogen, and were stored at −80° C.
Each of the concentration of adonixanthin in each organ collected from the adonixanthin-administration group (concentration relative to the weight of each organ) and the concentration of astaxanthin in each organ collected from the astaxanthin-administration group (concentration relative to the weight of each organ) was measured. Specifically, each organ was homogenized, and extraction was repeated with acetone until no color occurred. Then, filtration through a filter was performed to evaporate acetone, and diethyl ether:hexane (2:8, v/v) was added to the solution to extract a carotenoid. Furthermore, evaporation to dryness was performed, and the residue was dissolved in acetone:hexane (2:8, v/v) and subjected to HPLC. As the HPLC device, a Hitachi L-6000 intelligent pump and an L-4250 UV-VIS detector were used. The measurement wavelength was 450 nm, and a column of 5 μm Cosmosil 5SL-II (inner diameter of 250×4.6 mm) (manufactured by Nacalai Tesque, Inc.) was used. As the mobile phase, acetone:hexane (2:8, v/v) was used, and measurement was performed at a flow rate of 1.0 mL/min.
In HPLC, the concentration of astaxanthin was measured as a concentration of each of the cis isomer and the trans isomer.
Each of the concentration of adonixanthin in each organ collected from the adonixanthin-administration group and the concentration of astaxanthin in each organ collected from the astaxanthin-administration group is shown in Table 1. The measured value was expressed as mean. From each organ collected from the control administration group, neither adonixanthin nor astaxanthin were detected.

The mark [3] stands for this setting: heart, read-out: Concentration in organ: Heart.
[4] abbreviates: kidney, read-out: Concentration in organ: Kidney.
Setting [5] is: liver, read-out: Concentration in organ: Liver.
Where [6] appears, read: lung, read-out: Concentration in organ: Lung.
The mark [7] stands for this setting: spleen, read-out: Concentration in organ: Spleen.

Like-named read-outs stand apart in the source and are kept apart here.

From patent US20220054432A1, “COMPOSITION FOR INCREASING RETENTION OF CAROTENOID IN BLOOD” (ENEOS Corporation, priority 2018, published 2022) come the findings set out here.

For `CC1=C(/C=C/C(C)=C/C=C/C(C)=C/C=C/C=C(C)/C=C/C=C(C)/C=C/C2=C(C)C(=O)C(O)CC2(C)C)C(C)(C)CC(O)C1` (stereo not drawn) [adonixanthin, 3,3′-dihydroxy-β,β-caroten-4-one], the “Concentration in serum (total of cis isomer and trans isomer), FIG. 1” value in data set [1] was “especially likely to be retained in blood”. Also, the “Transfer into and retention in each organ (summary of Table 1)” value in data set [2] is “especially likely to be transferred into each organ and retained therein”. In addition, the concentration at 10 days was 141 ng/g in data set [2] (setting [3]); 774 ng/g in data set [2] (setting [4]); 1930 ng/g in data set [2] (setting [5]); 1940 ng/g in data set [2] (setting [6]); 277 ng/g in data set [2] (setting [7]).

For the compound `CC1=C(/C=C/C(C)=C/C=C/C(C)=C/C=C/C=C(C)/C=C/C=C(C)/C=C/C2=C(C)C(=O)C(O)CC2(C)C)C(C)(C)CC(O)C1=O` (stereo not drawn) [astaxanthin, 3,3′-dihydroxy-β,β-carotene-4,4′-dione], in data set [1], the “Concentration in serum (total of cis isomer and trans isomer), FIG. 1” value is “exist in serum at a high concentration”. For the same compound, the “Transfer into and retention in each organ (summary of Table 1)” value in data set [2] is “exist in each organ at a high concentration”. Further, the concentration at 10 days in data set [2] (setting [3]) is 124 ng/g; in data set [2] (setting [4]) it was 84.6 ng/g; in data set [2] (setting [5]) it was 109 ng/g; in data set [2] (setting [6]) it was 106 ng/g; in data set [2] (setting [7]), 87.8 ng/g.
